Test results taken from patent publication US11725036B2, “Modified lipidated relaxin B chain peptides and their therapeutic use” (Sanofi, priority 2018, dated 2023).
Starred links: 1 amine or outer side, 2 acyl side, 3 side chain; linkers in the order of their positions; H or OH if unused. Non-standard residues stand in square brackets, D forms with d. Residues, ends and D or L forms follow the SMILES beside them. Groups on a side chain read outwards from the residue. *: point of attachment. X15 = CCCCCCCCCCCCCCCCCC(=O)N[C@@H](CCC(=O)N[C@@H](CCC(=O)N[C@@H](CCC(=O)NCCCOCCOCCOCCCNC(=O)COCC(=O)NCCCOCCOCCOCCCNC(=O)COCC(=O)NCCCOCCOCCOCCCNC(=O)COCC(=O)*)C(=O)O)C(=O)O)C(=O)O; X1 = CCCCCCCCCCCCCCCC(=O)N[C@@H](CCC(=O)N[C@@H](CCC(=O)N[C@@H](CCC(=O)NCCCOCCOCCOCCCNC(=O)CCC(=O)NCCCOCCOCCOCCCNC(=O)CCC(=O)NCCCOCCOCCOCCCN*)C(=O)O)C(=O)O)C(=O)O; X4 = CCCCCCCCCCCCCCCCCC(=O)N[C@@H](CCC(=O)N[C@@H](CCC(=O)N[C@@H](CCC(=O)NCCCOCCOCCOCCCNC(=O)CCC(=O)NCCCOCCOCCOCCCN*)C(=O)O)C(=O)O)C(=O)O; Suc = O=C(CCC(=O)[*:2])[*:1]; αMeK = C[C@](N)(CCCCN)C(=O)O; Aib = CC(C)(N)C(=O)O

Molecular target: T1, RXFP1 (Homo sapiens, UniProt Q9HBX9)
T1 construct: OVCAR5 cells expressing endogenous RXFP1; endogenous in cells; host or cells: OVCAR5
T1 sequence (Q9HBX9 1-757): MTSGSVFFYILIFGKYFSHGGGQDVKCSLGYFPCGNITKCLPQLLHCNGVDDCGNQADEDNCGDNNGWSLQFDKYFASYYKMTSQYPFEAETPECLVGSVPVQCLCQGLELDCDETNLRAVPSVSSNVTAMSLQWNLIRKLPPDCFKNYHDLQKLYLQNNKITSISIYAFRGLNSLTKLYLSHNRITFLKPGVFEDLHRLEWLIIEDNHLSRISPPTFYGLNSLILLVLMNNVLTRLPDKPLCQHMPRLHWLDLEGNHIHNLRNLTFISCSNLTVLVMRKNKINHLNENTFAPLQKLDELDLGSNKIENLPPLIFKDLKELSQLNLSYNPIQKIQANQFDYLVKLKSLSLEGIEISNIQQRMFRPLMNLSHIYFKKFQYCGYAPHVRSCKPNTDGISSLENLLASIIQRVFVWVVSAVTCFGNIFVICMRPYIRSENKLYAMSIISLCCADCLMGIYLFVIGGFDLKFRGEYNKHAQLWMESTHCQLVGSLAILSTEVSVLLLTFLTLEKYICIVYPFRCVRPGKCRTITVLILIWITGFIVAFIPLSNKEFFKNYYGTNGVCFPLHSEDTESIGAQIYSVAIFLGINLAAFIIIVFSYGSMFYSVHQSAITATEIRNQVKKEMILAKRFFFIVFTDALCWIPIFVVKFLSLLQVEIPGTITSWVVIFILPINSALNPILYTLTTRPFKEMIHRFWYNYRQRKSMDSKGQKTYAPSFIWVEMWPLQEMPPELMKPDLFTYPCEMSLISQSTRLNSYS
Test: OVCAR5 cAMP assay (HTRF)
Type: cell-based
Conditions: for EC50: OVCAR 5 cells expressing endogenous RXFP1, cAMP readout; for Emax: OVCAR 5 cells, maximal cAMP relative to H2-relaxin
From the text: OVCAR5 cells expressing endogenous RXFP1 were used to test RXP1 agonist properties of peptides of the invention, and in particular of the peptides of sequence SEQ ID NO: 1-97.
Since RXFP1 is a Gs coupled GPCR, cAMP was used as readout of RXFP1 activation.
Isobutyl Methyl Xanthine (IBMX) was used to inhibit phosphodiesterase activity facilitating cAMP measurements. HTRF (Homogenous Time Resolved Fluorescence) technology was used to detect cAMP due to its great sensitivity.
In summary, OVCAR5 were grown in regular medium (RPMI) containing 10% fetal calf serum (FCS) and 1% antibiotics (penicillin/streptomycin).
Before the experiments, cells were detached with accutase and incubated for 40 minutes at 37° C. with 1 mM (3-isobutyl-1-methylxanthine) IBMX.
Cells were then distributed in 384 black well plates containing increasing concentrations of the different peptides in a fix volume of medium (without FCS).
After an incubation of 30 min at 37° C. in an humid incubator in 5% CO2, the reaction was stopped by adding a fixed volume of a solution containing a lysis buffer and cAMP-D2 (cAMP labeled with the dye d2) and the anti cAMP antibody linked to Europium and used for cAMP detection.
Readout of the experiment were performed on a fluorimeter allowing HTRF measurement. Activation curves were generated by plotting the intracellular value of cAMP versus log 10 of the compound concentration.
The 50% activation concentration (EC50) was calculated by nonlinear regression using the sigmoidal dose-response (variable slope) equation with Prism 5 software.
Emax % was determined as the maximal intracellular value of cAMP for test compound (upper limit of cAMP vs concentration curve) divided by the maximal intracellular value of cAMP for H2-relaxin determined in the same test occasion multiplied by 100. Emax %=100×[cAMPtest cpd]/[cAMPH2-Rlx]

| EC50 | Emax | Compound |
| --- | --- | --- |
| 0.1 nM | 97% | CCCCCCCCCCCCCCCCCC(=O)N[C@@H](CCC(=O)N[C@@H](CCC(=O)N[C@@H](CCC(=O)NCCCOCCOCCOCCCNC(=O)COCC(=O)NCCCOCCOCCOCCCNC(=O)COCC(=O)NCCCOCCOCCOCCCNC(=O)COCC(=O)NCCCC[C@H](NC(=O)CNC(=O)[C@H](CCC(=O)O)NC(=O)C(C)(C)NC(=O)C(C)(C)NC(=O)[C@@H](NC(=O)[C@H](CCCCNC(C)=O)NC(=O)[C@H](C)NC(=O)[C@H](CCCNC(=N)N)NC(=O)[C@@H](NC(=O)[C@H](CCCCN)NC(=O)[C@H](CCC(=O)O)NC(=O)[C@H](CCCNC(=N)N)NC(=O)CNC(=O)[C@H](CCC(=O)O)NC(=O)[C@H](CC(C)C)NC(C)=O)C(C)C)[C@@H](C)CC)C(=O)N[C@@H](CO)C(=O)N[C@H](C(=O)N[C@@H](Cc1ccccc1)C(=O)N[C@@H](CO)C(=O)N[C@@](C)(CCCCN)C(=O)N[C@@H](CCCNC(=N)N)C(=O)N[C@@H](C)C(=O)N[C@@H](CCCCNC(C)=O)C(N)=O)[C@@H](C)O)C(=O)O)C(=O)O)C(=O)O [compound 32] (Ac-LEGREKVRAK(Ac)I[Aib][Aib]EGK(X15)STFS[αMeK]RAK(Ac)-NH2) |
| 0.14 nM | 90% | CCCCCCCCCCCCCCCCCC(=O)N[C@@H](CCC(=O)N[C@@H](CCC(=O)N[C@@H](CCC(=O)NCCCOCCOCCOCCCNC(=O)CCC(=O)NCCCOCCOCCOCCCNC(=O)CCC(=O)NCCCC[C@H](NC(=O)CNC(=O)[C@H](CCC(=O)O)NC(=O)C(C)(C)NC(=O)C(C)(C)NC(=O)[C@@H](NC(=O)[C@H](CCCCNC(C)=O)NC(=O)[C@H](C)NC(=O)[C@H](CCCNC(=N)N)NC(=O)[C@@H](NC(=O)[C@H](CCCCN)NC(=O)[C@H](CCC(=O)O)NC(=O)[C@H](CCCNC(=N)N)NC(=O)CNC(=O)[C@H](CCC(=O)O)NC(=O)[C@H](CC(C)C)NC(C)=O)C(C)C)[C@@H](C)CC)C(=O)N[C@@H](CO)C(=O)N[C@H](C(=O)N[C@@H](Cc1ccccc1)C(=O)N[C@@H](CO)C(=O)N[C@@](C)(CCCCN)C(=O)N[C@@H](CCCNC(=N)N)C(=O)N[C@@H](C)C(=O)N[C@@H](CCCCNC(C)=O)C(N)=O)[C@@H](C)O)C(=O)O)C(=O)O)C(=O)O [compound 34] (Ac-LEGREKVRAK(Ac)I[Aib][Aib]EGK([Suc-X4])STFS[αMeK]RAK(Ac)-NH2) |
| 2.33 nM | 91% | CCCCCCCCCCCCCCCC(=O)N[C@@H](CCC(=O)N[C@@H](CCC(=O)N[C@@H](CCC(=O)NCCCOCCOCCOCCCNC(=O)CCC(=O)NCCCOCCOCCOCCCNC(=O)CCC(=O)NCCCOCCOCCOCCCNC(=O)CCC(=O)NCCCC[C@H](NC(=O)CNC(=O)[C@H](CCC(=O)O)NC(=O)C(C)(C)NC(=O)C(C)(C)NC(=O)[C@@H](NC(=O)[C@H](CCCCNC(C)=O)NC(=O)[C@H](C)NC(=O)[C@H](CCCNC(=N)N)NC(=O)[C@@H](NC(=O)[C@H](CCCCN)NC(=O)[C@H](CCC(=O)O)NC(=O)[C@H](CCCNC(=N)N)NC(=O)CNC(=O)[C@H](CCC(=O)O)NC(=O)[C@H](CC(C)C)NC(C)=O)C(C)C)[C@@H](C)CC)C(=O)N[C@@H](CO)C(=O)N[C@H](C(=O)N[C@@H](Cc1c[nH]c2ccccc12)C(=O)NC(C)(C)C(=O)N[C@@H](CCCCN)C(=O)N[C@@H](CCCNC(=N)N)C(=O)N[C@@H](C)C(=O)N[C@@H](CCCCNC(C)=O)C(N)=O)[C@@H](C)O)C(=O)O)C(=O)O)C(=O)O [compound 35] (Ac-LEGREKVRAK(Ac)I[Aib][Aib]EGK([Suc-X1])STW[Aib]KRAK(Ac)-NH2) |
| 3.6 nM | 93% | CCCCCCCCCCCCCCCC(=O)N[C@@H](CCC(=O)N[C@@H](CCC(=O)N[C@@H](CCC(=O)NCCCOCCOCCOCCCNC(=O)CCC(=O)NCCCOCCOCCOCCCNC(=O)CCC(=O)NCCCOCCOCCOCCCNC(=O)CCC(=O)NCCCC[C@H](NC(=O)CNC(=O)[C@H](CCC(=O)O)NC(=O)C(C)(C)NC(=O)C(C)(C)NC(=O)[C@@H](NC(=O)[C@H](CCCCNC(C)=O)NC(=O)[C@H](C)NC(=O)[C@H](CCCNC(=N)N)NC(=O)[C@@H](NC(=O)[C@H](CCCCN)NC(=O)[C@H](CCC(=O)O)NC(=O)[C@H](CCCNC(=N)N)NC(=O)CNC(=O)[C@H](CCC(=O)O)NC(=O)[C@H](CC(C)C)NC(C)=O)C(C)C)[C@@H](C)CC)C(=O)N[C@@H](CO)C(=O)N[C@H](C(=O)N[C@@H](Cc1ccccc1)C(=O)N[C@@H](CO)C(=O)N[C@H](CCCCN)C(=O)N[C@@H](CCCNC(=N)N)C(=O)N[C@@H](C)C(=O)N[C@@H](CCCCNC(C)=O)C(N)=O)[C@@H](C)O)C(=O)O)C(=O)O)C(=O)O [compound 36] (Ac-LEGREKVRAK(Ac)I[Aib][Aib]EGK([Suc-X1])STFS[dK]RAK(Ac)-NH2) |
